The structures appear in SMILES notation. Several values for one entry are separate records, joined by “and”; a condition that tells them apart may be missing. Identical values can stand only once.

The target in one series is T1, 5-HT1A receptor (Homo sapiens, UniProt P08908).
T1 construct: expressed in transfected cells
T1 sequence (P08908 1-422): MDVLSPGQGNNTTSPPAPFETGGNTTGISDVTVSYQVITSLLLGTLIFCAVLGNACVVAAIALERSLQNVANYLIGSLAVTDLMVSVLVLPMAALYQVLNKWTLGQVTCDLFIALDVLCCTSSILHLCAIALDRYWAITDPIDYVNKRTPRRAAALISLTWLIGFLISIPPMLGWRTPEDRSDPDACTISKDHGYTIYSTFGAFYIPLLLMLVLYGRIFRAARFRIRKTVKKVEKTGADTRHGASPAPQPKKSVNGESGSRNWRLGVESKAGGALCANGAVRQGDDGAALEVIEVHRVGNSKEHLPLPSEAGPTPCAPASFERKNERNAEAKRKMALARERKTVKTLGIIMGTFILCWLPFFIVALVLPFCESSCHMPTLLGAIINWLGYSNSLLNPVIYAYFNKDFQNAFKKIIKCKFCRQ
Briefly: human monoamine GPCR binding profile, 5-HT1A. The text has this: (§1) As known in the art, human monoamine GPCR binding profiles were obtained using heterologously expressed cloned human GPCRs in the binding experiments. Both pKi and IC50 (nM concentration) values were obtained as well as an average value of each from at least three determinations.

In a further series the target is T2, D2A (Homo sapiens, UniProt P14416).
T2 construct: expressed in transfected cells
T2 sequence (P14416 whole entry): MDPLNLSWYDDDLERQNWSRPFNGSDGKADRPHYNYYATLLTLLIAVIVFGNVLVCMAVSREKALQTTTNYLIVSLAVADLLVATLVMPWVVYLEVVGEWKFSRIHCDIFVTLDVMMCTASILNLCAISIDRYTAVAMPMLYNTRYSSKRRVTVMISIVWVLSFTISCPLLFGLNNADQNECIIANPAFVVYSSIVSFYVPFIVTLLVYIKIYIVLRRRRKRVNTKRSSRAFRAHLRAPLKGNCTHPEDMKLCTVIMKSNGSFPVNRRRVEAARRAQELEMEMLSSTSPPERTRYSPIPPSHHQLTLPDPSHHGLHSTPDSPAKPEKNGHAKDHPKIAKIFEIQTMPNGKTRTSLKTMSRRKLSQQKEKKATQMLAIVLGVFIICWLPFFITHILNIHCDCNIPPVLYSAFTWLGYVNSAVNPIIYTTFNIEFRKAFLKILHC
Briefly: dopaminergic receptor binding, D2A. Conditions: result in words. The protocol:
as §1
(§2) Dopaminergic receptors D2A, D2B, D3, and D4 were also tested.

Another series concerns the target T3, D2B (Homo sapiens, UniProt P14416).
T3 construct: expressed in transfected cells
Briefly: dopaminergic receptor binding, D2B. Conditions: result in words. Here is the method: as §1, §2

The target of the next series is T4, D3 (Homo sapiens, UniProt P35462).
T4 construct: expressed in transfected cells
T4 sequence (P35462 whole entry): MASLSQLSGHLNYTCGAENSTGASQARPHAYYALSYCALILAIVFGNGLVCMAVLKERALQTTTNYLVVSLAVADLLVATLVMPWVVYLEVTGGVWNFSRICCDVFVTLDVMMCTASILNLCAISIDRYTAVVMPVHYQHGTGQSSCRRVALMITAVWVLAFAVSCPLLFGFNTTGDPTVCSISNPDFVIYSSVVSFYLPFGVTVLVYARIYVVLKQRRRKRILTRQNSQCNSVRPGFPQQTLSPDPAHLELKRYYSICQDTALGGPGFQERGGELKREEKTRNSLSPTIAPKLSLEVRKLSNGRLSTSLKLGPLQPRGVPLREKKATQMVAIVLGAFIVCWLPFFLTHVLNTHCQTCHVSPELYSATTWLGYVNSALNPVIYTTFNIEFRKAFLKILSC
Briefly: dopaminergic receptor binding, D3. Conditions: result in words. Here is the method: as §1, §2

The target in another series is T5, D4 (Homo sapiens, UniProt P21917).
T5 construct: expressed in transfected cells
T5 sequence (P21917 1-419): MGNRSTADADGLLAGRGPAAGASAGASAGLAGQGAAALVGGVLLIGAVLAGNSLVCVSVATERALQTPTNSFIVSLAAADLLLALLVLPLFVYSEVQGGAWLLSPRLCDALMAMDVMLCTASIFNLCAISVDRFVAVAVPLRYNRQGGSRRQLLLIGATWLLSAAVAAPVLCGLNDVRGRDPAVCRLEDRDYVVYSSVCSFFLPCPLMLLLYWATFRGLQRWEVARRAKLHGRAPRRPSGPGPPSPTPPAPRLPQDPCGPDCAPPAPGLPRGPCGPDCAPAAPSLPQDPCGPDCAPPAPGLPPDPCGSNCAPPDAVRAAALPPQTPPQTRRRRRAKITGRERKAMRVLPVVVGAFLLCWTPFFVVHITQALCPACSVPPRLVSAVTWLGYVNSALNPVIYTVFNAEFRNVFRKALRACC
Briefly: dopaminergic receptor binding, D4. Here is the method: as §1, §2

For a further series, the target named is T6, Alpha 2A (Homo sapiens, UniProt P08913).
T6 construct: expressed in transfected cells
T6 sequence (P08913 1-465): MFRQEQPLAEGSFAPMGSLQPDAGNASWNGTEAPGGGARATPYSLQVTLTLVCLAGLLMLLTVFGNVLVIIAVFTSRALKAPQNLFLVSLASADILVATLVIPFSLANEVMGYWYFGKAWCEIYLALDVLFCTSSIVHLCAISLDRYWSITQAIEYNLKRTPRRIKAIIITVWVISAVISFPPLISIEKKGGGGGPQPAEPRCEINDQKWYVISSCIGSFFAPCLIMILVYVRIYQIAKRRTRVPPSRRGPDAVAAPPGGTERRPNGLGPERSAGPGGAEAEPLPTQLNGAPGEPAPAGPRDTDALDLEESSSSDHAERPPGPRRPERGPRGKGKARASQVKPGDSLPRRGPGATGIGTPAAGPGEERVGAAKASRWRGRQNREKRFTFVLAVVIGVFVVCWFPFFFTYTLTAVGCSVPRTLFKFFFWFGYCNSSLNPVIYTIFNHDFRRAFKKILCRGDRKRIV
Briefly: alpha-adrenergic receptor binding, Alpha 2A. Conditions: result in words. Here is the method: as §1, §2

For another series, the target named is T7, Alpha 2B (Homo sapiens, UniProt P18089).
T7 construct: expressed in transfected cells
T7 sequence (P18089 1-450): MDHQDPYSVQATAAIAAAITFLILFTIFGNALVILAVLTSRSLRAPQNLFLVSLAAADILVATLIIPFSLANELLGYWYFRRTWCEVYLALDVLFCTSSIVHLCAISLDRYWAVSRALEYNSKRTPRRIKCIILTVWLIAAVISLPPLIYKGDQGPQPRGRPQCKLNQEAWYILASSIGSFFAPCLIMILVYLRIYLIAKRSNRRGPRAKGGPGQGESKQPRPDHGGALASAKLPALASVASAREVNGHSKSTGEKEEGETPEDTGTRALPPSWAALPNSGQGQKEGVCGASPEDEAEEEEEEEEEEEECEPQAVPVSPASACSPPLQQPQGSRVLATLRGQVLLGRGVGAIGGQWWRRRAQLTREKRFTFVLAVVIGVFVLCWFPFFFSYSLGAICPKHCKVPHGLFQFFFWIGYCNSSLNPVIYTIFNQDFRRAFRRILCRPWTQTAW
Briefly: alpha-adrenergic receptor binding, Alpha 2B. Conditions: result in words. The protocol:
as §1, §2

For the next series, the target named is T8, Alpha 2C receptor (Homo sapiens, UniProt P18825).
T8 construct: expressed in transfected cells
T8 sequence (P18825 1-462): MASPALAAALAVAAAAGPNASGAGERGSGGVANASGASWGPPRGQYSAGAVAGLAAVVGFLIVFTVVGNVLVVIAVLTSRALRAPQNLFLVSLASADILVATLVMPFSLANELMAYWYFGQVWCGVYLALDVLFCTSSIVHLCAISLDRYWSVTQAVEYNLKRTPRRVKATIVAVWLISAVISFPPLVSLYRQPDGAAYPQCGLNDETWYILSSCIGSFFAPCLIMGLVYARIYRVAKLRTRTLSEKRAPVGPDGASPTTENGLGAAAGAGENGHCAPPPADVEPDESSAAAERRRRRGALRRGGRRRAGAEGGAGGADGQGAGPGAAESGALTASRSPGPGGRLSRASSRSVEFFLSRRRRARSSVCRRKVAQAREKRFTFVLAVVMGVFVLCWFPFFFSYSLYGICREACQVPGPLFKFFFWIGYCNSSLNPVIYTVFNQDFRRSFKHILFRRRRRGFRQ
Briefly: alpha-adrenergic receptor binding, Alpha 2C. Conditions: result in words. Here is the method:
as §1, §2

For a further series, the target named is T9, M1 (Homo sapiens, UniProt P11229).
T9 construct: expressed in transfected cells
T9 sequence (P11229 1-460): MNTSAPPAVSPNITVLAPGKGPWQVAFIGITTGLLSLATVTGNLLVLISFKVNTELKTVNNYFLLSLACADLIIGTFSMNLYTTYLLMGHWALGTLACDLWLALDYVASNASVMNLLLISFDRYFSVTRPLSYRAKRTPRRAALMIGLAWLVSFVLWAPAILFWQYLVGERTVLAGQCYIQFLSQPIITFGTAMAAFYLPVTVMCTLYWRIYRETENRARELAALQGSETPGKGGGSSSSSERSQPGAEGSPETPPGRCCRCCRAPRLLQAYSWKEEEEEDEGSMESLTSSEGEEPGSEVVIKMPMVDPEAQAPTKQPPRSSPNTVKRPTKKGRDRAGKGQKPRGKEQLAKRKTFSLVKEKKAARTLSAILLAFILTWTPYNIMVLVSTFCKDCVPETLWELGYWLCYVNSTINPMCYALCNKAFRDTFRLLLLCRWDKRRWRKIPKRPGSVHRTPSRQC
Briefly: muscarinic receptor binding, M1. Conditions: read-out: pKi M1 (converted).
Description: as §1

The target in the next series is T10, M2 (Homo sapiens, UniProt P08172).
T10 construct: expressed in transfected cells
T10 sequence (P08172 1-466): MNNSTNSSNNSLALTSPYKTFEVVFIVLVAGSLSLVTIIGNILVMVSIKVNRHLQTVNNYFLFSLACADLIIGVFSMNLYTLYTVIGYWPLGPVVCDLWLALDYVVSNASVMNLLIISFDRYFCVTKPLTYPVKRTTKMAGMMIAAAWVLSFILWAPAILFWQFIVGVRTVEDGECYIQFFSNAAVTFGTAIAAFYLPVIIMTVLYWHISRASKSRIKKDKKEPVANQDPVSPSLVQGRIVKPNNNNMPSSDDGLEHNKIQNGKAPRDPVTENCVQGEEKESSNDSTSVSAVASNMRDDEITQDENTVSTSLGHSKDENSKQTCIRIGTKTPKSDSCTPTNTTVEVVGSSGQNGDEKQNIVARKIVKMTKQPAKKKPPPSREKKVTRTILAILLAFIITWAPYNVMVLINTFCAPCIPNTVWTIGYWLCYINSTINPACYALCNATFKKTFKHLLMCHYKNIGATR
Briefly: muscarinic receptor binding, M2. Conditions: read-out: pKi M2 (converted).
Description: as §1

For a further series, the target named is T11, M3 (Homo sapiens, UniProt P20309).
T11 construct: expressed in transfected cells
T11 sequence (P20309 whole entry): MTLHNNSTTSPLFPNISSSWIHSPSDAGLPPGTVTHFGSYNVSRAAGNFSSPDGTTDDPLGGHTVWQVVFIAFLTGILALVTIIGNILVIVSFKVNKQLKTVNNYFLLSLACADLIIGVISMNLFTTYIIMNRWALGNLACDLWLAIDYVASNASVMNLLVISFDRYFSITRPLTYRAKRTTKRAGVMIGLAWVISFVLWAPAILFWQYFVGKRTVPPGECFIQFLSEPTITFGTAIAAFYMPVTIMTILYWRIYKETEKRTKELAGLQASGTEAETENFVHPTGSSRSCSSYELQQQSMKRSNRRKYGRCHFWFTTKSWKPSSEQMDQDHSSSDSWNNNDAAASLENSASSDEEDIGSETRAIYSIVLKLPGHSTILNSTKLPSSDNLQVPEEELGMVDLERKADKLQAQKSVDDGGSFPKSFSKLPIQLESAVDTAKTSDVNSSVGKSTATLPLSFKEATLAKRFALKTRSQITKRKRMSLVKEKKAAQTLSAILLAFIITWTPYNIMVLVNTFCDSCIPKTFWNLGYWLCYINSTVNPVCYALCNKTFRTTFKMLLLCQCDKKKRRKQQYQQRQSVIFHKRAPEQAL
Briefly: muscarinic receptor binding, M3. Conditions: read-out: pKi M3 (converted).
Description: as §1

The next series deals with T12, M4 (Homo sapiens, UniProt P08173).
T12 construct: expressed in transfected cells
T12 sequence (P08173 1-479): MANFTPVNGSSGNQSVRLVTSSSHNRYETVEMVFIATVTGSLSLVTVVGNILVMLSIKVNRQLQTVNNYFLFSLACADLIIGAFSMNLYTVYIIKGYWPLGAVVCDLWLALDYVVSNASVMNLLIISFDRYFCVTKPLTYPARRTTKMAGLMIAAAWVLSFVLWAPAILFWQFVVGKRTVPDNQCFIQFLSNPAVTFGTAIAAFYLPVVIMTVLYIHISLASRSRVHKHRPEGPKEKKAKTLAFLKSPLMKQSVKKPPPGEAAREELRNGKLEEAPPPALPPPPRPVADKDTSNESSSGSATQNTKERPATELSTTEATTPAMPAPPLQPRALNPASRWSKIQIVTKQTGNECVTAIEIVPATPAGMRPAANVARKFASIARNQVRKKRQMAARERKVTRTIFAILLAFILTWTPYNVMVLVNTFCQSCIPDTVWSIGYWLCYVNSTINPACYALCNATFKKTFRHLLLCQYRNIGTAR
Briefly: muscarinic receptor binding, M4. Conditions: read-out: pKi M4 (converted).
Description: as §1

Series [1] in a line: plasma levels of 3-OH gepirone after administration of gepirone. It is filed as in vivo. Conditions: human subjects administered a dose of gepirone; FIG. 2; result in words. The protocol:
“Time (H)” represents time after administration.
Each sample corresponds to a 0.5 ml plasma sample, extracted with 6 ml of (2:1) (v/v) hexane:chloroform for 1 hour. After separation by centrifuge, the organic layer is transferred to a 10 ml conical tube and 90 ul of 1% formic acid is added. The tube is vortexed for 10 minutes and centrifuged for 5 minutes. About 80 ul of the formic acid layer is transferred into injection vials for HPLC/MS analysis.

The conditions of series [2]: cited from earlier work; for half-life: result in words.

T3 sequence (P14416 1-414 isoform P14416-2): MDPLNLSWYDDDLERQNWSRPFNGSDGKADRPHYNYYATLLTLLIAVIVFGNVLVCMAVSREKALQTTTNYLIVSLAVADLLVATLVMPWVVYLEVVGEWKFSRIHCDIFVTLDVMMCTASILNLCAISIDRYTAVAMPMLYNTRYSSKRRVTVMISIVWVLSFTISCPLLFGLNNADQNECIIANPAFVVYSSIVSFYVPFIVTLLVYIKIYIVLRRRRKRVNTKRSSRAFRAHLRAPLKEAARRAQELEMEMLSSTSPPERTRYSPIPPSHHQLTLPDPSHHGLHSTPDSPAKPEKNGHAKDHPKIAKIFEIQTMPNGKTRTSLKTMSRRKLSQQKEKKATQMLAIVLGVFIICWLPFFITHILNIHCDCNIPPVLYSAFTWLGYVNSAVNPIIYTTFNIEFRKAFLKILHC

The IC50 is the concentration at which inhibition is half-maximal. In the case of `CC1(C)CC(=O)N(CCCCN2CCN(c3ncccn3)CC2)C(=O)C1O` (stereo not drawn) [3-OH gepirone, 4,4,-dimethyl-3-hydroxy-1-[4-[4-(2-pyrimidinyl)-1-piperazinyl]butyl]-2,6-piperidinedione], the half-maximal inhibitory concentration (IC50) on 5-HT1A receptor (cloned human GPCR, average of at least three determinations) is < 0.1 µM and ~0.058 µM; at D4, ~1.42 µM. The “selectivity for the 5-HT1A receptor among the serotonergic receptor subtypes” value at 5-HT1A receptor (in vitro binding studies, result in words) is on record as “highly selective”. Moreover, the “binding at D2A” value on D2A is reported as “insignificant dopaminergic binding”. Also, at D2B, the “binding at D2B” value is recorded as “insignificant dopaminergic binding”. Further, the “binding at D3” value at D3 is given as “insignificant dopaminergic binding”. The “affinity at Alpha 2A” value on Alpha 2A is reported as “did not display significant affinity”. The “affinity at Alpha 2B” value on Alpha 2B is “did not display significant affinity”. Also, the “binding at the Alpha 2C receptor” value at Alpha 2C receptor is recorded as “weak binding”. The Ki on M1, on M2, on M3 and on M4 was > 45.7 µM in each case. Also, the “plasma levels of 3-OH gepirone” value in series [1] was “available quickly and persists in the plasma for extended periods of time”.

On to `O=C1CC2(CCCC2)CC(=O)N1CCCCN1CCN(c2ncccn2)CC1` [buspirone], for which the half-life result in series [2] is listed as “very short”.

`CC1(C)CC(=O)N(CCCCN2CCN(c3ncccn3)CC2)C(=O)C1` [gepirone, 4-dimethyl-1-[4-[4-(2-pyrimidinyl)-1-piperazinyl]butyl]-2,6-piperidinedione, reference compound]: the Ki at M1, on M2, on M3 and at M4 was > 45.7 µM each time. In series [2] (delivered orally), the bioavailability is listed as 14-18%. In addition, the half-life entry in series [2] is “very short”.
